Results reported in PubChem BioAssay (NCI).
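Briefly, cells in 96-well plates were exposed to five compound concentrations for 48 h, and endpoints were estimated by linear interpolation. Abbreviation: GI50, concentration required for 50% inhibition of growth. TGI: concentration producing complete growth inhibition.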

How the values were obtained:
Test in all cases: growth of human tumour cells (NCI), 48 h
[1] = tested on: TK-10 renal
[2] = tested on: NCI-H522 lung
[3] = tested on: HL-60(TB) leukemia
[4] = tested on: HT29 colon
[5] = tested on: MALME-3M melanoma
[6] = tested on: MCF7 breast
[7] = tested on: SN12C renal
[8] = tested on: CAKI-1 renal
[9] = tested on: BT-549 breast
[10] = tested on: COLO 205 colon

Structure (SMILES) | TGI [1] [µM] | TGI [2] [µM] | TGI [3] [µM] | TGI [4] [µM] | TGI [5] [µM] | TGI [6] [µM] | TGI [7] [µM] | TGI [8] [µM] | TGI [9] [µM] | TGI [10] [µM] | GI50 [1] [µM] | GI50 [2] [µM] | GI50 [3] [µM] | GI50 [4] [µM] | GI50 [5] [µM] | GI50 [6] [µM] | GI50 [7] [µM] | GI50 [8] [µM] | GI50 [9] [µM] | GI50 [10] [µM]
Cc1nc2ccc(Cl)cc2c2c1CCN2c1ccccc1 | 37.7 | 28.1 | 11.1 | > 100 | 32.3 | 36 | 17.2 | 28.1 | 31.2 | 18.1 |  |  |  |  |  |  |  |  |  | 
NCCOCC(N)C(=O)O (stereo not given) | > 100 | > 100 | > 100 | > 100 | > 100 | > 100 | > 100 | > 100 | > 100 | > 100 |  |  |  |  |  |  |  |  |  | 
CS(=O)(=O)NC12CCC(c3ccccc31)c1ccccc12 | > 100 | > 100 | > 100 | > 100 | > 100 | > 100 | > 100 | > 100 | > 100 | > 100 |  |  |  |  |  |  |  |  |  | 
NC1=NCC(CN2CCCC2)O1 (stereo not given) | > 100 | > 100 | > 100 | > 100 | > 100 | > 100 | > 100 | > 100 | > 100 | > 100 |  |  |  |  |  |  |  |  |  | 
O=C1CC(n2cccc2)c2c(Br)sc(Br)c21 (stereo not given) | 45.4 | 3.27 | 41.4 | 32.1 | 38 | 26.9 | 31.1 | 19.8 | 34.3 | 30.7 |  |  |  |  |  |  |  |  |  | 
N#Cc1nc(C#N)n(C(=O)c2ccccc2)c1NC(=O)c1ccccc1 | > 100 | > 100 | > 100 | > 100 | > 100 | > 100 | > 100 | > 100 | > 100 | > 100 |  |  |  |  |  |  |  |  |  | 
NC(=O)Cc1nc2c(=O)[nH]cnc2n1C1OC(CO)C(O)C1O (stereo not given) | > 100 | > 100 | > 100 | > 100 | > 100 | > 100 | > 100 | > 100 | > 100 | > 100 |  |  |  |  |  |  |  |  |  | 
c1ccc(-c2nnn(CCN3CCCCC3)n2)cc1 | > 100 | > 100 | > 100 | > 100 | > 100 | > 100 | > 100 | > 100 | > 100 | > 100 |  |  |  |  |  |  |  |  |  | 
COc1ccc2nc3n(c2c1)CCc1cc(OC)c(OC)cc1-3 | > 100 | > 100 | > 100 | 95.8 | > 100 | > 100 | > 100 | > 100 | 99.2 | 90.8 |  |  |  |  |  |  |  |  |  | 
S=C(NCc1ccccc1)N/N=C/c1ccccn1 | > 100 | 24.5 | 0.183 | > 100 | > 100 | > 100 | > 100 | > 96.6 | > 100 | > 100 |  |  |  |  |  |  |  |  |  | 
C=C1C(=O)O[C@H]2[C@H]3O[C@@H](C[C@@H]12)[C@](C)(O)CC[C@@H]1O[C@@]1(C)CCC[C@H]3C | 32.6 | 34.6 | > 100 | 68.6 | 31 | 50.9 | 65.2 | 27.6 | 31.5 | 30 |  |  |  |  |  |  |  |  |  | 
NS(=O)(=O)c1ccc(NNc2c3ccccc3nc3c(C(=O)Nc4ccc(S(=O)(=O)Nc5ncccn5)cc4)cccc23)cc1 | > 25 | > 25 | > 25 | > 25 | > 25 | > 25 | > 25 | > 25 | > 25 | > 25 |  |  |  |  |  |  |  |  |  | 
O=C1c2ccccc2-c2[nH]c3cn[nH]c(=O)c3c21 | > 100 | 50.9 | > 100 | > 100 | > 100 | > 100 | > 100 | > 100 | > 100 | > 100 |  |  |  |  |  |  |  |  |  | 
N/C(=N\Nc1ccc(S(N)(=O)=O)cc1)c1cnccn1 | > 100 | > 100 | > 100 | > 100 | > 100 | > 100 | > 100 | > 100 | > 100 | > 100 |  |  |  |  |  |  |  |  |  | 
CC1CC/C(=C\c2ccc(Cl)cc2)c2nc(N)c(C#N)c(-c3ccc(Cl)cc3)c21 (stereo not given) | > 100 | > 100 | 15.4 | > 100 | 62 | > 100 | > 100 | 45.5 | > 100 | > 100 |  |  |  |  |  |  |  |  |  | 
O=C(NNCc1ccc(Cl)cc1)Nc1cccc2ccccc12 | > 100 | > 100 | > 100 | > 100 | > 100 | > 100 | > 100 | > 100 | > 100 | > 100 |  |  |  |  |  |  |  |  |  | 
CC1OC2OC3C(OCC(O)C3O)OC(=O)[C@]34CCC(C)(C)CC3C3=CCC5[C@@]6(C)C[C@H](O)[C@H](OC7OC(CO)C(O)C(O)C7OC7OCC(OC(=O)CC(C)(O)CC(=O)OC1C(OC1OC(CO)C(O)C(O)C1O)C2O)C(O)C7O)[C@@](C)(CO)C6CC[C@@]5(C)[C@]3(C)CC4 (stereo not given in full) | 21.1 | 22.5 | 6.29 | 19.4 | 17.5 | 23.6 | 23.3 | 16.1 | 21.1 | 7.61 |  |  |  |  |  |  |  |  |  | 
O=C(c1ccco1)N(C(=S)OC12CC3CC(CC(C3)C1)C2)c1ccccc1 | > 100 | 51.8 | 63.6 | > 100 | 65.7 | 85.3 | 62.8 | > 100 | > 100 | 32.4 |  |  |  |  |  |  |  |  |  | 
Cc1ccc(/C(O)=C/c2nc3ccc([N+](=O)[O-])cc3nc2/C=C(\O)c2ccc(C)cc2)cc1 | > 100 | > 100 | > 100 | > 100 | > 100 | > 100 | > 100 | > 100 | > 100 | > 100 |  |  |  |  |  |  |  |  |  | 
O=C(Nc1cccc(-n2cc(-c3ccncc3)c(-c3ccc(O)c(Cl)c3)n2)c1)c1cccc(C(F)(F)F)c1 | > 100 | > 100 | 6.76 | > 100 | > 100 | > 100 | > 100 | > 100 | > 100 | 72.9 | 7.18 | 2.49 | 2.68 | 5.18 | 5.59 | 2.97 | 6.44 | 2.83 | 3.34 | 13
